Data from patent US20120238554A1, “SALTS OF POTASSIUM ATP CHANNEL OPENERS AND USES THEREOF” (priority 2007, published 2012).
Entries after “also recorded” stand apart in the source; their conditions may differ. Where a name gives a salt, the structure may show the parent alone. Read-outs that look alike come from different tables or passages of the source. Marks after values point to notes of the source that are not given here.

Legend:
[1] = Polymorph screening crystallizations and characterization of forms (XRPD, DSC, TGA); format: physicochemical; conditions: for TGA: data indicates a half-molar equivalent of acetone, water, or dioxane for Forms C, D, F
Procedure: DSC analysis were conducted with a Mettler 822 DSC, by measuring the amount of energy released by a sample, as the sample was heated from 30° C. to between 300-500° C. at a rate of 10° C./min. Typical applications of DSC analysis include determination of melting point temperature and the heat of melting; measurement of the glass transition temperature; curing and crystallization studies; and identification of phase transformations.
TGA measurements were conducted with a Mettler 851 SDTA/TGA, by measuring weight loss as a function of increasing temperature, as the samples were heated from 30° C. to 230° C. at a rate of 10° C./min. The TCA can be used to analyze desorption and decomposition behavior, characterize oxidation behavior, set burnout or conditioning parameters (temperature/ramp rate/time), and determine chemical composition.
XRPD samples were analyzed with a Shimadzu XRD-6000 system, using a Cu Kα, 40 kV, 40 mA X-ray tube. The divergence and scatter slits were 1.00 deg, and the receiving slit was 0.30 mm. Samples were continuously scanned at a range of 3.0-45.0 deg, with a step size of 0.04 deg., at a scan rate of 2 deg/min.
After hot filtration the vials were placed in a refrigerator (4° C.) for 16 hours. […] All solids were dried in vacuo at ambient temperature and 30 in. Hg.
After hot filtration the vials were then slowly cooled to room temperature at the rate of 20° C./h and stirred at room temperature for 1-2 hours. All solids were dried in vacuo at ambient temperature and 30 in. Hg.
Solvents for crystallizations were chosen based on the solubility screen summarized below.

[2] = Form conversion and degradation under thermal stress (60° C.); conditions: for Thermal: 7 days
Procedure: Studies were also conducted to evaluate the likelihood for conversion and degradation under thermal stress.

[3] = Moisture sorption analysis; format: physicochemical
Procedure: Moisture Sorption Analysis was performed with a Hiden IGAsorp Moisture Sorption Instrument, Samples were first dried at 0% relative humidity at 25° C. until an equilibrium weight was reached, or for a maximum of 4 hours. Samples were then subjected to an isothermal (25° C.) scan from 10-90% relative humidity in steps of 10%. The samples were allowed to equilibrate to an asymptotic weight at each point for a maximum of 4 hours. Following absorption, a desorption scan from […] relative humidity (at 25° C.) was run in steps of −10%, again allowing a maximum of 4 hours for the samples to equilibrate. The resulting samples after desorption were dried at 80° C. for two hours and analyzed by XRPD.

[4] = Slurry studies of inter-conversion of the solid form; conditions: room temperature
[5] = Bioavailability of diazoxide choline and related molecules; conditions: male mice; for AUC0-6 / Cmax: Oral gavage, single 50 mg/kg dose; for Relative oral bioavail.: ratio of AUC0-6 to that of the IV dose of diazoxide choline
Procedure: The study used 4 mice dosed per treatment arm. Following, a single intravenous or oral dose, administered by gavage, pharmacokinetic samples were collected at 4 time points: 0.5, 1, 3, and 6 hours post-dosing. Two mice were sampled at each timepoint, with each mouse contributing samples to two timepoints. Each test drug was administered as a 50 mg/kg dose, which yields nearly equal molar concentrations. […] Blood samples were collected into tubes containing dipotassium EDTA as the anticoagulant and placed on ice packs until centrifugation (at 3000 rpm for 10 minutes at 4° C.). After centrifugation, samples were stored at −70° C. until they were thawed for analysis. Circulating drug levels were measured using a precise and reproducible LC-MS/MS assay.

high-fructose diet rats = conditions: rat, in vivo; cited from earlier work
Zucker rats = conditions: oral 1-10 mg/kg/day, 14 days; cited from earlier work
obese Zucker rats = conditions: 5 mg/kg/day, cited from earlier work
[6] = Solubility screen in organic solvents
[7] = 50/50 mixtures of potassium salt Forms C, D, F, ethyl acetate, acetonitrile, isopropanol
[8] = 60° C., closed, protected from light, 7 and 14 days

CC1=NS(=O)(=O)c2cc(Cl)ccc2[N-]1.[K+] [Diazoxide potassium Form D]
XRPD [1]: Crystalline
TGA [1]: 4.5%**
Thermal [2]: Stable (7 days)
Moisture Sorption [3]: Hygroscopic -
Moisture Sorption: deliquesced at [3]: deliquesced at 90% RH

CC1=NS(=O)(=O)c2cc(Cl)ccc2[N-]1.CC1=NS(=O)(=O)c2cc(Cl)ccc2[N-]1.O.[K+].[K+] [diazoxide potassium salt Form D]
inter-conversion of the solid form in slurry [4, 7]: conversion to Form D was observed in all solvents
crystalline form after moisture sorption/desorption (XRPD) [3]: consistent with Form D
Moisture Sorption (hygroscopicity) ([3]; 25° C.): hygroscopic

CC(C)NC1=NS(=O)(=O)c2cc(Cl)c(F)cc2N1
AUC0-6 [5]: 313 ± 15 ng·h/mL
Cmax [5]: 0.08 ± 0.012 µg/mL
Relative oral bioavail. [5]: 0.2%

CC1=NS(=O)(=O)c2cc(Cl)ccc2[N-]1.[K+] [Diazoxide potassium Form F]
XRPD [1]: Crystalline
TGA [1]: 13.1%**
Thermal [2]: Stable (7 days)

CC1=Nc2ccc(Cl)cc2S(=O)(=O)[N-]1.C[N+](C)(C)CCO [diazoxide choline salt Form B]
inter-conversion of the solid form in slurry ([4]; 7 and 14 days, n-heptane, dichloromethane, toluene (Table 16 Form B: CH2Cl2, THF, t-AmOH), listed as Form B): form conversion was not observed; also recorded: Stable after 14 days in
form conversion and degradation under thermal stress (XRPD, DSC) [2]: Stable after 14 days at
Moisture Sorption (hygroscopicity) ([3]; 25° C., listed as Form B): hygroscopic; also recorded: Hygroscopic -
water absorbed ([3]; 60% RH, 25° C., listed as Form B): 7.4 wt %
moisture absorbed ([3]; 70% relative humidity, 25° C.): over 14.5%
crystalline form after moisture sorption/desorption (XRPD) ([3]; listed as Form B): remained in the Form B crystal structure

CC1=Nc2ccc(Cl)cc2S(=O)(=O)[N-]1.C[N+](C)(C)CCO [diazoxide choline salt Form A]
inter-conversion of the solid form in slurry ([4]; 7 and 14 days, n-heptane, dichloromethane, toluene (Table 16 Form B: CH2Cl2, THF, t-AmOH), listed as Form A): conversion to Form B was observed after seven days; also recorded: readily converted to Form B; also recorded: Converted to Form B after 7
form conversion and degradation under thermal stress (XRPD, DSC) [2]: Started to convert to Form
Moisture Sorption (hygroscopicity) ([3]; 25° C., listed as Form A): Hygroscopic - deliquesced
water absorbed ([3]; 60% RH, 25° C., listed as Form A): 2.4 wt %
crystalline form after moisture sorption/desorption (XRPD) ([3]; listed as Form A): consistent with Form A

O=S1(=O)N=C(NC2CCC2)Nc2ccc(F)cc21
AUC0-6 [5]: 89 ± 16 ng·h/mL
Cmax [5]: 0.024 ± 0.01 µg/mL
Relative oral bioavail. [5]: 0.06%

N#CNC(=NCCc1ccccc1Cl)c1cncc(N)c1 [KRN4884]
Hepatic triglyceride lipase activity (high-fructose diet rats): not affected
lipoprotein lipase (LPL) activity in muscle (high-fructose diet rats): significantly increased
serum insulin and glucose levels (Zucker rats): no change
serum triglyceride levels (Zucker rats): dose dependently reduce

COc1ccc2c(c1)NC(NC(C)C)=NS2(=O)=O
AUC0-6 [5]: 3590 ng·h/mL
Cmax [5]: 1.56 µg/mL
Relative oral bioavail. [5]: 2.6%

CC1=NS(=O)(=O)c2cc(Cl)ccc2[N-]1.[Na+] [sodium salt of diazoxide]
inter-conversion of the solid form in slurry ([4]; 7 and 14 days, n-heptane, dichloromethane, toluene (Table 16 Form B: CH2Cl2, THF, t-AmOH)): no propensity of inter-conversion
form conversion and degradation under thermal stress (XRPD, DSC) [2, 8]: little propensity to change form or degrade
Moisture Sorption (hygroscopicity) ([3]; 25° C.): hygroscopic
hydrate formation (hysteresis upon desorption) ([3]; 25° C.): possible hydrate formation
Moisture Sorption (hygroscopicity) ([3]; 25° C., listed as Sodium diazoxide salt): deliquescent -
water absorbed ([3]; 60% RH, 25° C.): 1.2 wt %
water absorbed ([3]; 80% RH, 25° C.): 6.6 wt %

CC(C)=O.CC1=NS(=O)(=O)c2cc(Cl)ccc2[N-]1.CC1=NS(=O)(=O)c2cc(Cl)ccc2[N-]1.[K+].[K+] [diazoxide potassium salt Form C]
inter-conversion of the solid form in slurry [4, 7]: readily converted to Form D; also recorded: conversion to Form D was observed in all solvents
form conversion and degradation under thermal stress (XRPD, DSC) [2, 8]: stable
crystalline form after moisture sorption/desorption (XRPD) [3]: consistent with Form D
Moisture Sorption (hygroscopicity) ([3]; 25° C.): hygroscopic
water absorbed ([3]; 90% RH, 25° C.): approximately 47 wt %

Cl.N#CN=C(Nc1ccc(N)nc1)N[C@@H]1C[C@@H]2CC[C@H]1C2 [AL0671, (+)—N-(6-amino-3-pyridil)-N′-[(1S,2R,4R)-bicyclo-[2.2.1]hept-2-yl]-N″-cyanoguanidine hydrochloride]
serum total triglyceride, chylomicron and very-low-density lipoprotein levels (obese Zucker rats; 1 or 2 weeks): significantly decrease
increase of hepatic triglyceride lipase activities (obese Zucker rats; postheparin plasma): 3 fold
increase of lipoprotein lipase activities (obese Zucker rats; postheparin plasma): 4 fold

C1COCCO1.CC1=NS(=O)(=O)c2cc(Cl)ccc2[N-]1.CC1=NS(=O)(=O)c2cc(Cl)ccc2[N-]1.[K+].[K+] [diazoxide potassium salt Form F]
inter-conversion of the solid form in slurry [4, 7]: readily converted to Form D; also recorded: conversion to Form D was observed in all solvents
crystalline form after moisture sorption/desorption (XRPD) [3]: consistent with Form D
Moisture Sorption (hygroscopicity) ([3]; 25° C.): hygroscopic
water absorbed ([3]; 90% RH, 25° C.): ~22 wt %

O=S1(=O)N=C(NC2CCC2)Nc2ccc(Br)cc21
AUC0-6 [5]: 800 ± 126 ng·h/mL
Cmax [5]: 0.181 ± 0.016 µg/mL
Relative oral bioavail. [5]: 0.6%

CC1=NS(=O)(=O)c2cc(Cl)ccc2[N-]1.[K+] [Diazoxide potassium Form C]
XRPD [1]: Crystalline
TGA [1]: 8.4%**
Thermal [2]: Stable (7 days)
Moisture Sorption [3]: Hygroscopic -
Moisture Sorption: deliquesced at [3]: deliquesced at 90% RH

CC1=NS(=O)(=O)c2cc(Cl)ccc2N1 [Diazoxide Potassium Salt]
Soluble ([6]; Acetone, 0.40 mg/mL, 55 ° C.): Yes
Conc. ([6]; CH2Cl2, 55 ° C.): 260 µg/mL
Soluble ([6]; CH2Cl2, […], 55 ° C.): No
Soluble ([6]; DMF, >6.40 mg/mL, rt): Yes
Conc. ([6]; DMF, rt): >6400 µg/mL
Conc. ([6]; Dioxane, 55 ° C.): 280 µg/mL
Soluble ([6]; Dioxane, […], 55 ° C.): No
Conc. ([6]; EtOAc, 55 ° C.): 360 µg/mL
Soluble ([6]; EtOAc, […], 55 ° C.): No
Conc. ([6]; EtOH, 55 ° C.): 2930 µg/mL
Soluble ([6]; EtOH, […], 55 ° C.): Yes
Soluble ([6]; Heptane, 0.24 mg/mL, 55 ° C.): No
Conc. ([6]; Heptane, 55 ° C.): 240 µg/mL
Conc. ([6]; IPA, 55 ° C.): 2100 µg/mL
Soluble ([6]; IPA, […], 55 ° C.): Yes
Conc. ([6]; IPAc, 55 ° C.): 340 µg/mL
Soluble ([6]; IPAc, […], 55 ° C.): No
Soluble ([6]; MEK, 0.30 mg/mL, 55 ° C.): Partially
Conc. ([6]; MEK, 55 ° C.): 300 µg/mL
Conc. ([6]; MTBE, 55 ° C.): 360 µg/mL
Soluble ([6]; MTBE, […], 55 ° C.): No
Soluble ([6]; MeCN, 0.85 mg/mL, 55 ° C.): Yes
Conc. ([6]; MeCN, 55 ° C.): 850 µg/mL
Soluble ([6]; MeOH, 6.00 mg/mL, 55 ° C.): Yes
Conc. ([6]; MeOH, 55 ° C.): 6000 µg/mL
Conc. ([6]; THF, 55 ° C.): 360 µg/mL
Soluble ([6]; THF, […], 55 ° C.): Partially
Conc. ([6]; Toluene, 55 ° C.): 280 µg/mL
Soluble ([6]; Toluene, […], 55 ° C.): No
Soluble ([6]; Water, 0.30 mg/mL, 55 ° C.): No
Soluble ([6]; c-Hexane, 0.30 mg/mL, 55 ° C.): No
Conc. ([6]; c-Hexane, 55 ° C.): 300 µg/mL
solubility ([6]; water, 55 °C): 300 µg/mL
